Laboratory results reported in patent US7030087B2, “Synthetic approach to designed chemical structures” (priority 1996, dated 2006).

B1: bactericidal/permeability increasing polypeptide (protein, UniProt P17213 32-487, looked up)
Bactericidal …: VNPGVVVRISQKGLDYASQQGTAALQKELKRIKIPDYSDSFKIKHLGKGHYSFYSMDIREFQLPSSQISMVPNVGLKFSISNANIKISGKWKAQKRFLKMSGNFDLSIEGMSISADLKLGSNPTSGKPTITCSSCSSHINSVHVHISKSKVGWLIQLFHKKIESALRNKMNSQVCEKVTNSVSSELQPYFQTLPVMTKIDSVAGINYGLVAPPATTAETLDVQMKGEFYSENHHNPPPFAPPVMEFPAAHDRMVYLGLSDYFFNTAGLVYQEAGVLKMTLRDDMIPKESKFRLTTKFFGTFLPEVAKKFPNMKIQIHVSASTPPHLSVQPTGLTFYPAVDVQAFAVLPNSSLASLFLIGMHTTGSMEVSAESNRLVGELKLDRLLLELKHSNIGPFPVELLQDIMNYIVPILVLPRVNEKLQKGFPLPTPARVQLYNVVLQPHQNFLLFGADVVYK
notes: purified in three column-chromatography steps

Experiments:
[1] = system: endotoxin from E. coli 055:B5; assay: Limulus amoebocyte lysate assay (E-TOXATE), endotoxin neutralization; format: biochemical; details: for Endotoxin Neutralization, % neutralization: 5.0 × 10^−6 M Peptide; for Endotoxin Neutralization, % neutralization / Endotoxin Neutralizing Activity, % neutralization: 0.02 U (0.2 pg) endotoxin from E. coli 055:B5; for Endotoxin Neutralizing Activity, % neutralization: 5.0 × 10^−5 M peptide
Description: The peptides were tested for their ability to neutralize endotoxin. Quantitative endotoxin activities for these peptides were measured by Limulus amoebocyte lysate assay.
Limulus amoebocyte lysate assay: The ability of synthetic peptides to neutralize endotoxin was detected with the E-TOXATE kit manufactured by Sigma Chemicals (St. Louis, Mo.). […] Peptide or B/PI was incubated with LPS at room temperature for 5 min in 100 ul of a 1:2 dilution of pyrogen-free saline (pH 6.4). The reaction was started by addition of 100 ul of amoebocyte lysate and the final volume was 200 ul. Assuming a 10,000 molecular weight for LPS, the approximate molar ration of B/PI:LPS at neutralization was 3000 to 1.
The peptides were tested according to the method provided above. […] BG38L was used as a positive control in these experiments.

[2] = system: P. aeruginosa; assay: Bactericidal activity assay; format: cell-based, Pseudomonas aeruginosa type 1; details: for Bactericidal Activity, % killing: 1.2 × 10^−7 M Peptide, 5 × 105 P. aeruginosa; for Bactericidal Activity, % killing at the effective dose: at the Ed for the same peptide; for Bactericidal Activity, Ed, Effective M dose: dose at which the % in brackets was found
Excerpt: Bacteria: P. aeruginosa type 1 is a clinical isolate maintained in the laboratory. The isolate remains a smooth strain and was serotyped by the scheme of Homma. The Pseudomonas strain was maintained by monthly transfer on blood agar plates.
The peptides can be assayed for bactericidal activity against a variety of organisms such as Pseudomonas aeruginosa type 1, P. cepacia ATCC 25608, E. coli B, and Staphylococcus aureus 502A by standard methods.
Pseudomonas aeruginosa type 1 is a clinical isolate. The isolate remains a smooth strain and was serotyped by the scheme of Homma (Jpn. J. Exp. Med. 46:329, 1976). A rough strain, E. coli B and S. aureus 502A were obtained from Paul Quie, University of Minnesota (Minneapolis, Minn.). The characteristics of the S. aureus strain have been described by Shinefield et al. (Amer. J. Dis. Chil. 105:646, 1963). Pseudomonas cepacia ATCC 25608 can be purchased from the ATCC. S. aureus and E. coli were maintained on nutrient agar plates and the Pseudomonas strains were maintained on blood agar plates.
Pyrogen-free solutions were used throughout the assay and all methods that follow. Log phase bacteria were prepared from a culture in brain heart infusion broth (Hovde et al. Infect. Immun. 54:142–148, 1986) and bacteria were washed and resuspended in saline with adjustment to an optical density at 650 nm to provide a yield of about 3×10^8 CFU/ml. Bacteria were diluted 1:10 in 0.08M citrate phosphate buffer, pH 5.6 or pH 7.0, for use in the assay. S. aureus rapidly lost viability in the pH 5.6 buffer and was studied only at pH 7.0. Bactericidal activity was determined by dose response over peptide concentrations ranging from about […] to about 4.1×10^−9M. Bactericidal activity was determined by dose response, preferably determining LD50 by linear regression.

[3] = Table 4, dose at which the % in brackets was found

Row | Molecule | Endotoxin Neutralization, % neutralization ([1]; Table 4) | Bactericidal Activity, % killing [2] | Endotoxin Neutralization, % at the effective dose ([1]; Table 4, at the Ed) | Endotoxin Neutralization, Ed, Effective M dose [1, 3] | bactericidal activity (in words) [2] | Endotoxin Neutralizing Activity, % neutralization ([1]; Table 3) | Endotoxin Neutralization, % at the effective dose ([1]; Table 3, at the ED printed in the same cell) | Endotoxin neutralization, ED, Effective M dose ([1]; Table 3, dose at which the % in brackets was found) | Bactericidal Activity, % killing at the effective dose [2] | Bactericidal Activity, Ed, Effective M dose [2] | approximate molar ratio B/PI:LPS at neutralization ([1]; assuming a 10,000 molecular weight for LPS)
1 | HIKELQVRWRAQKRFLRMSIIVKLNDGRELSLD [βpep-6] | 79.3, n = 3% | 8.2, n = 2% |  |  |  |  |  |  |  |  | 
2 | SIQDLNVSLKLFRKQAKWKIIVKLNDGRELSLD [βpep-21] | 100% | 13.0, n = 1% | 40.3% | 1.2 µM |  |  |  |  |  |  | 
3 | HIKELQVKMKAQKRFLKWSIIVKLNDGRELSLD [βpep-7] | 77.7, n = 2% | 39.1, n = 2% |  |  | greatest bactericidal activity |  |  |  |  |  | 
4 | ANIKLSVEMKLFCY^DWKVCKHVKLNDGRELSLD [βpep-11] | 100% | 0% | 29.5% | 1.2 µM |  | 100% | 29.5% | 1.2 µM | (48.0), n = 4% | 960 nM | 
5 | ANIKLSVEMKFFKRHLKWKIIVKLNDGRELSLD [βpep-12] | 100% | 0% | 29.5% | 1.2 µM |  |  |  |  | (49.1), n = 5% | 960 nM | 
6 | SIQDLNVSMXLFRKQAKWKIIVKLNDGRELSLD [βpep-20] | 100% | 0% | 17.1% | 1.2 µM |  |  |  |  | 0.0% | 480 nM | 
7 | ANIKLSVKWKAQKRFLKMSINVDLSDGRELSLD [βpep-2] | 55.3, n = 5% | 18.8, n = 6% |  |  |  |  |  |  |  |  | 
8 | SIQDLKVSMKLFRKQAKWKIIVKLNDGRELSLD [βpep-18] | 100% | 18.8, n = 1% | 30.2% | 1.2 µM |  |  |  |  |  |  | 
9 | BG38: BG38L corresponds to amino acids 86–108 of B/PI; positive control (KISGKWKAQKRFLKMSGNFDLSI; UniProt P17213 117-139, looked up, fragment) [reference compound] |  |  |  |  |  | 34.4, n = 5% |  |  |  |  | 
10 | SIQDLNVSMKLFRKQAKWKINVKLNDGRELSLD [βpep-4] | 14.7, n = 3% | 37.6, n = 3% |  |  | greatest bactericidal activity |  |  |  |  |  | 
11 | SIQDLNVSMKLFRKQAKWKIIVKLNDGRELSLD [βpep-1] | 42.8, n = 3% | 32.0, n = 3% |  |  | greatest bactericidal activity | 42.8, n = 3% |  |  |  |  | 
12 | KFIVTLRVIKAGPHSPTAQIIVELKNGRKLSLD [βpep-5] | 70.3, n = 3% | 7.4, n = 7% |  |  |  | 70.3, n = 3% |  |  |  |  | 
13 | SIQDLNVSMKLFRKQAKWKIILKLNDGRELSLD [βpep-15] | 48.1 n = 1% | 0% |  |  |  |  |  |  | 23.9% | 960 nM | 
14 | SIQDLNVSMKLFRKQAKWKILVKLNDGRELSLD [βpep-17] | 100% | 0% | 28.9% | 1.2 µM |  |  |  |  | 40.1% | 960 nM | 
15 | SIQDLNLSMKLFRKQAKWKIIVKLNDGRELSLD [βpep-22] | 100% | 35.5, n = 3% | 21.3% | 1.2 µM | greatest bactericidal activity |  |  |  |  |  | 
16 | ANIKLSVEFKLFKRHLKWKIIFKLNDGREFSLD [βpep-13] | 100% | 0% | 22.5% | 1.2 µM |  |  |  |  | (19.8), n = 3% | 960 nM | 
17 | SIQKLNVSMKLFRKQAKWKIIVKLNDGRELSLD [βpep-19] | 0% | 62.5, n = 2% | 12.4% | 16 µM | greatest bactericidal activity |  |  |  |  |  | 
18 | ANIKLSVEMKLFCRHLKCKIIVKLNDGRELSLD [βpep-10] | 100% | 0% | 25.2% | 1.2 µM |  |  |  |  | (20.9), n = 7% | 960 nM | 
19 | ANIKLSVKWKAQKRFLKMSIIVKLNDGRELSLD [βpep-9] | 100% | 0% | 32.3% | 1.2 µM |  |  |  |  | (47.4), n = 11% | 960 nM | 
20 | B1 |  |  |  |  |  |  |  |  |  |  | 3000 to 1
